Assay [1] deals with platelet aggregation in platelet-rich plasma (PRP). Nature of the assay: Platelet aggregation inhibiting effect (ADP-induced aggregation in platelet-rich plasma). Format: cell-based, human (healthy man). The conditions noted are these: Homo sapiens, PRP of a healthy person, ADP final concentration 3 μg/ml, 37° C., read-out: IC50 (concentration needed to inhibit the platelet aggregation by 50%). As for the experimental part:
Blood was collected from the elbow vein of a healthy person, to which was added 3.8% sodium citrate of 1/10 times by volume the blood. This was centrifuged at 1000 rpm (150 g) for 10 minutes, and the resulting supernatant of a platelet-rich plasma (PRP) was collected. 2 μl of a solution of a test compound was added to 200 μl of the PRP and kept at 37° C. for 2 minutes while stirring at 1000 rpm. Then, 22 μl of a platelet aggregation promoter of ADP (adenosine diphosphate, final concentration: 3 μg/ml) was added. The degree of platelet aggregation of the sample was measured by colorimetry, using a hematracer (ex Niko Bioscience Co.). The platelet aggregation inhibiting activity of the test compound was represented by IC50, which indicates the concentration of the compound that was needed to inhibit the platelet aggregation by 50%.

The target of the next assay is T1, Fibrinogen (Homo sapiens, UniProt P05106+P08514).
T1 construct: endogenous in cells
T1 sequence (P08514 32-887 limits assumed): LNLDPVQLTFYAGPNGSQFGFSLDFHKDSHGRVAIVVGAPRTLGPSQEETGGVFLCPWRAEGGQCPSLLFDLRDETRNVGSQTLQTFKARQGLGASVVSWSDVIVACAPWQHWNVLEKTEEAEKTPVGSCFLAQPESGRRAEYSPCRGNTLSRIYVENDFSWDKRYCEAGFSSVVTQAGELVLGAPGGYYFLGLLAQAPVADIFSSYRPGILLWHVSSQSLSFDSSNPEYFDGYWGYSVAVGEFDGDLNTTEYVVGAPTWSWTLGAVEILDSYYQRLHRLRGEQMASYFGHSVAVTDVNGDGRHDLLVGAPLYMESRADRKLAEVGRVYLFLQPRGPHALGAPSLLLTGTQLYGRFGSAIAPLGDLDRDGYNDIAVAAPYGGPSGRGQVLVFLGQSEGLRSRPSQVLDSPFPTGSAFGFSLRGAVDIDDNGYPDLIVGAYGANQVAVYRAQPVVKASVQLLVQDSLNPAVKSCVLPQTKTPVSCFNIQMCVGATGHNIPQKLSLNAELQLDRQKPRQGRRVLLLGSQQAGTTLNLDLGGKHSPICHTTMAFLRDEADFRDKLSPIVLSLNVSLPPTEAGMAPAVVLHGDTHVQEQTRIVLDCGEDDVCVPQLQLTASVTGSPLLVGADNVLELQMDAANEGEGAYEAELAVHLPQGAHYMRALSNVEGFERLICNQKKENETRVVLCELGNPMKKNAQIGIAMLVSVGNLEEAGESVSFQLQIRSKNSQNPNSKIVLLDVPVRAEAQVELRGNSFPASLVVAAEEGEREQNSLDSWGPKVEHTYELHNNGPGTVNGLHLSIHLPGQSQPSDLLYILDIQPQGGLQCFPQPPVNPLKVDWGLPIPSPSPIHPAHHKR
T1 sequence (P08514 891-1039 limits assumed): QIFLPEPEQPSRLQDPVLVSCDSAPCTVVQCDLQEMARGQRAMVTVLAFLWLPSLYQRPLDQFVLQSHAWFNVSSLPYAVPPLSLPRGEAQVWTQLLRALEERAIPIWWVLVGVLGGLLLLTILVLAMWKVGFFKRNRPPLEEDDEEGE
T1 sequence (P05106 27-788): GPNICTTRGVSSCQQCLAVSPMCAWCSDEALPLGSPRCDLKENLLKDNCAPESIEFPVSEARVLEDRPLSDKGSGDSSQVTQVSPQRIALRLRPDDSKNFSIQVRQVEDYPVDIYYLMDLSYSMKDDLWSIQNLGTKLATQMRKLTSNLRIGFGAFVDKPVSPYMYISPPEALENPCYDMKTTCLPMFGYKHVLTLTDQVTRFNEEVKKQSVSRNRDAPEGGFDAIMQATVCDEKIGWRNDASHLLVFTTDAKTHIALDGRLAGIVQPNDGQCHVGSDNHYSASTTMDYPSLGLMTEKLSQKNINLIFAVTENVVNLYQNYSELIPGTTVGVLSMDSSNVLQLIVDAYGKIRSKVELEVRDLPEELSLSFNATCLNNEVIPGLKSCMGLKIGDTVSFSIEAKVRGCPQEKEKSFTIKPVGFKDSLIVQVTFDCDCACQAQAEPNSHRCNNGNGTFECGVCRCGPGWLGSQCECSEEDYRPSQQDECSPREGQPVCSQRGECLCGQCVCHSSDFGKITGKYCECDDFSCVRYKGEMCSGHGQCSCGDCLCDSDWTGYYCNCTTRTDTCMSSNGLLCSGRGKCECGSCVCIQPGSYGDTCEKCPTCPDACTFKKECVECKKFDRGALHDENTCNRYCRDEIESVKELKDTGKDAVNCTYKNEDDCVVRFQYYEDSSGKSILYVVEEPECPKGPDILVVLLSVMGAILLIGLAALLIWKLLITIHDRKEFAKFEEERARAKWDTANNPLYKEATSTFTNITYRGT
Nature of the assay: Bonding of platelets to fibrinogen. The conditions noted are these: activated, paraformaldehyde-fixed platelets; plate coated with fibrinogen 5 μg/ml; 37° C. 2 hours; read-out: IC50, inhibition of bonding of platelets to Fibrinogen. It counts as binding. As for the experimental part:
(§1) 50 ng/ml of PGI2 was added to the PRP sample and subjected to centrifugation at 11000 rpm for 2 minutes, by which the platelets were precipitated. The platelet precipitate was washed with 3.8 mM Hepes buffer (pH 7.4, Tyrode-Hepes buffer) containing 0.14 M NaCl, 2.7 mM KCl, 3.7 mM NaH2 PO4, 0.98 mM MgCl2, 1 mg/ml of glucose, 50 ng/ml of PGI2 and 0.35% BSA. 5 μM epinephrine and 30 μM ADP were added in this order and left at room temperature for 5 minutes, by which the platelets were activated. These were then transferred into a 0.05% paraformaldehyde solution and left at room temperature for 30 minutes, whereby the platelets were fixed in the solution. The thus-fixed platelets were suspended in the Hepes buffer at a concentration of 2×10^8 ml^-1.
(§2) Fibrinogen (ex Kabi Co.), fibronectin (ex Sigma Co.) or collagen (ex Horm Co.) was diluted with 0.1 M NaHCO3 to have a concentration of 5 μg/ml, put into each well of a 96-well microplate (ex Nunc Co.) at 200 μl/well and left at 4° C. overnight. Then, the plate was washed with a phosphate buffered saline (PBS) and blocked with 3% BSA at 37° C. for 1 hour. To the plate were added the platelet suspension (final concentration: 10^8 ml^-1) and a varying concentration of a test compound (total amount: 200 μl/well), and the plate was kept at 37° C. for 2 hours. Then, this was washed with PBS, and 2 μg/ml of an anti-CD9 monoclonal antibody was added and kept at 37° C. for 60 minutes. Next, this was treated with a 1/1000 dilution of an enzyme (HRP)-labeled anti-mouse IgG polyclonal antibody at 37 °C. for 60 minutes, and 100 μl/well of an HRP-coloration substrate (0.1 M phosphate buffer with pH 5, containing 0.4 mg/ml of o-phenylenediamine, 0.01% H2 O2 and 0.1 M citric acid) was added and reacted at room temperature for 15 minutes. By adding 20 μl/well of 4.5 M H2 SO4, the reaction was stopped. Then, the absorbance of the thus-reacted sample at 490 nm was measured. […]

The test system of another assay is Fibronectin. Kind of assay: Bonding of platelets to fibronectin. Format: binding. The conditions noted are these: activated, paraformaldehyde-fixed platelets; plate coated with fibronectin 5 μg/ml; 37° C. 2 hours; read-out: IC50, inhibition of bonding of platelets to Fibronectin. As for the experimental part: as §1, §2
In another assay the test system is Collagen. Kind of assay: Bonding of platelets to collagen. Format: binding. The conditions noted are these: activated, paraformaldehyde-fixed platelets; plate coated with collagen 5 μg/ml; 37° C. 2 hours; read-out: IC50, inhibition of bonding of platelets to Collagen. As for the experimental part: as §1, §2

Experimental findings from patent US5607948A, “Dipiperidine derivatives” (Sumitomo Pharmaceuticals Co., Ltd., priority 1993, dated 1997) are described below.

Structures are written as SMILES.

With `COc1ccc(C[C@H](NC(=O)CCCC2CCNCC2)C(=O)N2CCC(OCC(=O)O)CC2)cc1` [Compound (18), (1-(N-(4-(4-piperidyl)butanoyl)-O-methyl-L-tyrosyl)-4-piperidyloxy)acetic acid], the IC50 in assay [1] is 680 nM; on Fibrinogen, 63000 nM; in the assay with Fibronectin, 7200 nM; in the assay on Collagen, over 100000 nM.
For the molecule `O=C(O)COC1CCN(C(=O)[C@@H]2CCCN2C(=O)CCC2CCNCC2)CC1` [Compound (25), (1-(N-(3-(4-piperidyl)propanoyl)-L-prolyl)-4-piperidyloxy)acetic acid], the IC50 in assay [1] worked out at 316 nM.
For the molecule `COc1ccc(C[C@H](NC(=O)COC2CCNCC2)C(=O)N2CCC(CCC(=O)O)CC2)cc1` [Compound (37)], in assay [1], the IC50 stood at 117 nM.
Take `CC[C@H](C)[C@H](NC(=O)CCC1CCNCC1)C(=O)N1CCC(OCC(=O)O)CC1` [Compound (27), (1-(N-(3-(4-piperidyl)propanoyl)-L-isoleucyl)-4-piperidyloxy)acetic acid]: the IC50 in assay [1] was determined as 507 nM.
`O=C(O)COC1CCN(C(=O)[C@H](CO)NC(=O)CCC2CCNCC2)CC1` [Compound (29), (1-(N-(3-(4-piperidyl)propanoyl)-L-seryl)-4-piperidyloxy)acetic acid]: the IC50 in assay [1] amounted to 886 nM.
Still for that read-out and setting: as for `O=C(O)COC1CCN(C(=O)[C@H](Cc2ccccc2)NC(=O)CCC2CCNCC2)CC1` [Compound (21), (1-(N-(3-(4-piperidyl)propanoyl)-L-phenylalanyl)-4-piperidyloxy)acetic acid], the figure is 917 nM.
Still for that read-out and setting: as for `C[C@H](NC(=O)CCC1CCNCC1)C(=O)N1CCC(OCC(=O)O)CC1` [Compound (23), (1-(N-(3-(4-piperidyl)propanoyl)-L-alanyl)-4-piperidyloxy)acetic acid], the figure is 389 nM; as for `O=C(O)CCC1CCN(C(=O)[C@H](Cc2ccc(O)cc2)NC(=O)CCC2CCNCC2)CC1` [Compound (42), 3-(1-(N-(3-(4-piperidyl)propanoyl)-L-tyrosyl)-4-piperidyl)propanoic acid], 1730 nM; as for `CC(C)[C@H](NC(=O)CCC1CCNCC1)C(=O)N1CCC(OCC(=O)O)CC1` [Compound (22), (1-(N-(3-(4-piperidyl)propanoyl)-L-valyl)-4-piperidyloxy)acetic acid], 1100 nM.
Consider `O=C(O)COC1CCN(C(=O)[C@H](Cc2ccc(O)cc2)NC(=O)COC2CCNCC2)CC1` [Compound (19), (1-(N-(4-piperidyloxyacetyl)-L-tyrosyl)-4-piperidyloxy)acetic acid], for which the IC50 in assay [1] worked out at 61 nM.
Turning to `O=C(O)COC1CCN(C(=O)[C@H](Cc2c[nH]c3ccccc23)NC(=O)CCC2CCNCC2)CC1` [Compound (28), (1-(N-(3-(4-piperidyl)propanoyl)-L-tryptophyl)-4-piperidyloxy)acetic acid], the IC50 in assay [1] amounted to 438 nM.
In the case of `COc1ccc(C[C@H](NC(=O)CCC2CCNCC2)C(=O)N2CCC(CCC(=O)O)CC2)cc1` [Compound (35), 3-(1-(N-(3-(4-piperidyl)propanoyl)-O-methyl-L-tyrosyl)-4-piperidyl)propanoic acid], the IC50 in assay [1] was determined as 712 nM.
On to `O=C(O)COC1CCN(C(=O)CNC(=O)CCC2CCNCC2)CC1` [Compound (24)], for which, in assay [1], the IC50 was determined as 2380 nM.
With `COc1ccc(C[C@H](NC(=O)CCC2CCNCC2)C(=O)N2CCC(OCC(=O)O)CC2)cc1` [Compound (12)], the IC50 in assay [1] was 60 nM; at Fibrinogen, 450 nM; with Fibronectin, 67000 nM; in the assay on Collagen, over 100000 nM.
With `CC(C)C[C@H](NC(=O)CCC1CCNCC1)C(=O)N1CCC(OCC(=O)O)CC1` [Compound (26), (1-(N-(3-(4-piperidyl)propanoyl)-L-leucyl)-4-piperidyloxy)acetic acid], the IC50 in assay [1] turned out to be 929 nM.
Consider `COc1ccc(C[C@H](NC(=O)COC2CCNCC2)C(=O)N2CCC(OCC(=O)O)CC2)cc1` [Compound (15)], for which the IC50 was 48 nM in assay [1], 250 nM at Fibrinogen, 240 nM in the assay on Fibronectin and over 100000 nM in the assay on Collagen.
As for `O=C(O)CCC1CCN(C(=O)[C@H](Cc2ccc(O)cc2)NC(=O)COC2CCNCC2)CC1` [Compound (44), 3-(1-(N-(4-piperidyloxyacetyl)-L-tyrosyl)-4-piperidyl)propanoic acid], in assay [1], the IC50 stood at 630 nM.
As for `O=C(O)COC1CCN(C(=O)[C@H](Cc2ccc(O)cc2)NC(=O)CCC2CCNCC2)CC1` [Compound (20), (1-(N-(3-(4-piperidyl)propanoyl)-L-tyrosyl)-4piperidyloxy)acetic acid], in assay [1], the IC50 came to 135 nM.
